# Measured values reported in patent publication EP0406992A2, “New non-ionic carboxamide contrast agent” (SCHERING AKTIENGESELLSCHAFT, priority 1989, dated 1991).
# Where two headings read alike, the source gives them in different places. Marks after values point to notes of the source that are not given here.
# Key:
# [1] = test system: männl. Ratte 80-100 g; conditions: male rat 80-100 g, approximate range
# [2] = test system: männl. Maus 16-20 g; conditions: male mouse 16-20 g, approximate range
# [3] = values marked * (Laut Literaturangabe); cited from earlier work
# [4] = Osmolality of contrast agent solutions; assay type: physicochemical; conditions: for Osmolalität von 300 mg I/ml Lösungen wäßrige Lösung: aqueous solution; for Osmolalität von 300 mg I/ml Lösungen pharmazeutisch formul. Lösung: pharmaceutically formulated solution
# [5] = Viscosity of contrast agent solutions at 37 °C; assay type: physicochemical; conditions: for Viskosität von 300 mg I/ml bei 37 °C: pharmaceutically formulated solution, determined in applicant's laboratory
Compound,Näherungsbereich i.v. LD₅₀ männl. Ratte 80-100 g [1],Näherungsbereich i.v. LD₅₀ männl. Maus 16-20 g [2],Osmolalität von 300 mg I/ml Lösungen wäßrige Lösung [4],Osmolalität von 300 mg I/ml Lösungen pharmazeutisch formul. Lösung [4],Viskosität von 300 mg I/ml bei 37 °C [5],further results
CC(=O)N(CC(O)CO)c1c(I)c(C(=O)NCC(O)CO)c(I)c(C(=O)NCC(O)CO)c1I (centres unmarked) [Iohexol],"11,5-12,5 g I/kg",16-17 g I/kg,,,,
C[C@H](O)C(=O)Nc1c(I)c(C(=O)NC(CO)CO)c(I)c(C(=O)NC(CO)CO)c1I [Iopamidol],12-13 g I/kg,16-18 g I/kg,671 mOsm,704 mOsm,,"Viskosität von 300 mg I/ml bei 37 °C [3]: 4,7* cps"
COCC(=O)Nc1c(I)c(C(=O)NCC(O)CO)c(I)c(C(=O)N(C)CC(O)CO)c1I (centres unmarked) [Iopromid],11-12 g I/kg,14-16 g I/kg,607 mOsm,630 mOsm,,"Viskosität von 300 mg I/ml bei 37 °C [3]: 4,6* cps"
"CC(=O)N(CC(O)CO)c1c(I)c(C(=O)NCCO)c(I)c(C(=O)NCC(O)CO)c1I (centres unmarked) [Ioxilan, reference compound]",12-13 g I/kg,16-18 g I/kg,560 mOsm,588 mOsm,"4,7 cps",
"CC(=O)N(CCO)c1c(I)c(C(N)=O)c(I)c(C(=O)NC(CO)C(O)CO)c1I (stereo not drawn) [Verbindung 11, 5-{N-(2-Hydroxyethylacetamido)}-2,4,6-triiod-3-{N-(1,3,4-trihydroxy-threo-but-2-yl)}carbamoyl-Benzamid]","15,5-17,5 g I/kg","15,5-16,5 g I/kg",300 mOsm,326 mOsm,"4,2 cps","Viskosität bei 37 °C ([5]; injection solution 300 mg I/ml, CaNa2-EDTA 56 mg, Trinatriumcitrat 77 mg per 100 ml, pH 5,0 bis 6,0, 37 °C): 4,2 Centipoise; Viskosität bei 37 °C ([5]; injection solution 350 mg I/ml, CaNa2-EDTA 56 mg, Trinatriumcitrat 77 mg per 100 ml, pH 5,0 bis 6,0, 37 °C): 6,6 Centipoise; Viskosität bei 37 °C ([5]; injection solution 400 mg I/ml, CaNa2-EDTA 56 mg, Trinatriumcitrat 77 mg per 100 ml, pH 5,0 bis 6,0, 37 °C): 13,1 Centipoise; Osmolalität ([4]; injection solution 300 mg I/ml, CaNa2-EDTA 56 mg, Trinatriumcitrat 77 mg per 100 ml, pH 5,0 bis 6,0, autoclaved): 301 mOsm/kg; Osmolalität ([4]; injection solution 350 mg I/ml, CaNa2-EDTA 56 mg, Trinatriumcitrat 77 mg per 100 ml, pH 5,0 bis 6,0, autoclaved): 337 mOsm/kg; Osmolalität ([4]; injection solution 400 mg I/ml, CaNa2-EDTA 56 mg, Trinatriumcitrat 77 mg per 100 ml, pH 5,0 bis 6,0, autoclaved): 370 mOsm/kg"
"CC(=O)N(CC(O)CO)c1c(I)c(C(N)=O)c(I)c(C(=O)NCC(O)CO)c1I (centres unmarked) [Verbindung 19, 5-{N-(2,3-Dihydroxypropyl)acetamido}-2,4,6-triiod-3-{N-(2,3-dihydroxypropyl)}carbamoyl-Benzamid]",13-14 g I/kg,14-16 g I/kg,365 mOsm,390 mOsm,"4,1 cps","Viskosität bei 37 °C ([5]; injection solution 300 mg I/ml, CaNa2-EDTA 10 mg, Tris 121 mg per 100 ml, pH 7,0, 37 °C): 4,1 Centipoise; Viskosität bei 37 °C ([5]; injection solution 350 mg I/ml, CaNa2-EDTA 10 mg, Tris 121 mg per 100 ml, pH 7,0, 37 °C): 6,6 Centipoise; Viskosität bei 37 °C ([5]; injection solution 400 mg I/ml, CaNa2-EDTA 10 mg, Tris 121 mg per 100 ml, pH 7,0, 37 °C): 10,6 Centipoise; Osmolalität ([4]; injection solution 300 mg I/ml, CaNa2-EDTA 10 mg, Tris 121 mg per 100 ml, pH 7,0, autoclaved): 399 mOsm/kg; Osmolalität ([4]; injection solution 350 mg I/ml, CaNa2-EDTA 10 mg, Tris 121 mg per 100 ml, pH 7,0, autoclaved): 473 mOsm/kg; Osmolalität ([4]; injection solution 400 mg I/ml, CaNa2-EDTA 10 mg, Tris 121 mg per 100 ml, pH 7,0, autoclaved): 510 mOsm/kg"
"CN(C(=O)CO)c1c(I)c(C(N)=O)c(I)c(C(=O)NC(CO)C(O)CO)c1I (stereo not drawn) [Verbindung 41, 5-{N-(Methyl)-2-hydroxyacetamido}-2,4,6-triiod-3-{N-(1,3,4-trihydroxy-threo-but-2-yl)}-carbamoyl-Benzamid]",15-17 g I/kg,"16-17,5 g I/kg",314 mOsm,322 mOsm,"3,5 cps",
